Read-outs that look alike come from different tables or passages of the source.
Experiments:
MM.1S cells = assay: In vitro cytotoxic potency in MM.1S cell viability assay (CellTiter-Glo); format: cell-based, human; conditions: Homo sapiens, MM1.S, 72 h
Protocol: Methods: MM.1S Cells were cultivated in RPMI medium 1640 (IX) supplemented with 10 μg/μL penicillin/streptomycin, 10% heat inactivated FBS, 0.1 mM Sodium Pyruvate, 1×MEM NEAA (ThermoFisher) and 1 mM HEPES. Cells were grown to reach log phase before being exposed to the test compounds.
(§1) Test compounds (Example compounds 1 to 36, 38 to 41 and 45 to 48) and comparative compounds (bendamustine, busulfan, melphalan, chlorambucil and 4-hydroperoxy cyclophosphamide) were dissolved in 100% DMSO and added to a 384 assay plate. Additional DMSO was added to maintain the same final DMSO concentration (0.2%) in all wells. 25 μL cell suspension with a concentration of 100000 cells/mL was added to each well. The cells were cultured in a CO2 incubator at 37° C. for 72 h. Plates were equilibrated to room temperature for 30 minutes before adding 20 μL CellTiter-Glo® 2.0 (Promega) reagent to all wells. The plate was then allowed to stabilize for 20 minutes before recording the luminescence (emission filter 700 nm) in an Envision plate reader.
(§2) All cells were cultivated in RPMI medium 1640 (IX). All media was supplemented with 10 μg/μl penicillin/streptomycin, 10% heat inactivated FBS, 0.1 mM Sodium Pyruvate, 1×MEM NEAA (ThermoFisher) and 1 mM HEPES. The DERL-2 cells had higher FBS (20%) and 40 ng/mL IL-2 was added. hPBMCs were thawed and allowed to acclimatise overnight and then stimulated with 10 μg/mL PHA-M and 40 ng/mL IL-2 for 4 hours before being exposed to test compounds. All cells, except for hPBMCs, were grown to reach log phase before being exposed to the test compounds.
as §1, with “compounds” for “compounds (Example compounds 1 to 36, 38 to 41 and 45 to 48) and comparative compounds (bendamustine, busulfan, melphalan, chlorambucil and 4-hydroperoxy cyclophosphamide)”, “(Em” for “(emission”

U937 = assay: In vitro cytotoxicity, U937 (Histiocytic Lymphoma); format: cell-based; conditions: Homo sapiens, U-937, 72 h, read-out: Cytotoxicity IC50, U937
Protocol: as §2
as §1, with “compounds” for “compounds (Example compounds 1 to 36, 38 to 41 and 45 to 48) and comparative compounds (bendamustine, busulfan, melphalan, chlorambucil and 4-hydroperoxy cyclophosphamide)”, “(Em” for “(emission”

RPMI-8226 = assay: In vitro cytotoxicity, RPMI-8226 (Multiple Myeloma, resistant); format: cell-based; conditions: Homo sapiens, RPMI-8226, 72 h, read-out: Cytotoxicity IC50, RPMI-8226
Protocol: as §2
as §1, with “compounds” for “compounds (Example compounds 1 to 36, 38 to 41 and 45 to 48) and comparative compounds (bendamustine, busulfan, melphalan, chlorambucil and 4-hydroperoxy cyclophosphamide)”, “(Em” for “(emission”

SK-MM-1 = assay: In vitro cytotoxicity, SK-MM-1 (Plasma Cell Leukemia); format: cell-based; conditions: Homo sapiens, 72 h, read-out: Cytotoxicity IC50, SK-MM-1
Protocol: as §2
as §1, with “compounds” for “compounds (Example compounds 1 to 36, 38 to 41 and 45 to 48) and comparative compounds (bendamustine, busulfan, melphalan, chlorambucil and 4-hydroperoxy cyclophosphamide)”, “(Em” for “(emission”

DOHH-2 = assay: In vitro cytotoxicity, DOHH-2 (B Cell Lymphoma); format: cell-based; conditions: Homo sapiens, DOHH-2, 72 h, read-out: Cytotoxicity IC50, DOHH-2
Protocol: as §2
as §1, with “compounds” for “compounds (Example compounds 1 to 36, 38 to 41 and 45 to 48) and comparative compounds (bendamustine, busulfan, melphalan, chlorambucil and 4-hydroperoxy cyclophosphamide)”, “(Em” for “(emission”

HG-3 = assay: In vitro cytotoxicity, HG-3 (Chronic Lymphocytic Leukemia); format: cell-based; conditions: Homo sapiens, HG-3, 72 h, read-out: Cytotoxicity IC50, HG-3
Protocol: as §2
as §1, with “compounds” for “compounds (Example compounds 1 to 36, 38 to 41 and 45 to 48) and comparative compounds (bendamustine, busulfan, melphalan, chlorambucil and 4-hydroperoxy cyclophosphamide)”, “(Em” for “(emission”

SC-1 = assay: In vitro cytotoxicity, SC-1 (B cell Lymphoma); format: cell-based; conditions: Homo sapiens, SC-1, 72 h, read-out: Cytotoxicity IC50, SC-1
Protocol: as §2
as §1, with “compounds” for “compounds (Example compounds 1 to 36, 38 to 41 and 45 to 48) and comparative compounds (bendamustine, busulfan, melphalan, chlorambucil and 4-hydroperoxy cyclophosphamide)”, “(Em” for “(emission”

SU-DHL-8 = assay: In vitro cytotoxicity, SU-DHL-8 (B-cell non-Hodgkin Lymphoma); format: cell-based; conditions: Homo sapiens, SU-DHL-8, 72 h, read-out: Cytotoxicity IC50, SU-DHL-8
Protocol: as §2
as §1, with “compounds” for “compounds (Example compounds 1 to 36, 38 to 41 and 45 to 48) and comparative compounds (bendamustine, busulfan, melphalan, chlorambucil and 4-hydroperoxy cyclophosphamide)”, “(Em” for “(emission”

Toledo = assay: In vitro cytotoxicity, Toledo (Diffuse Large B Cell Lymphoma); format: cell-based; conditions: Homo sapiens, 72 h, read-out: Cytotoxicity IC50, Toledo
Protocol: as §2
as §1, with “compounds” for “compounds (Example compounds 1 to 36, 38 to 41 and 45 to 48) and comparative compounds (bendamustine, busulfan, melphalan, chlorambucil and 4-hydroperoxy cyclophosphamide)”, “(Em” for “(emission”

DERL-2 = assay: In vitro cytotoxicity, DERL-2 (T cell Lymphoma); format: cell-based; conditions: Homo sapiens, 72 h, read-out: Cytotoxicity IC50, DERL-2
Protocol: as §2
as §1, with “compounds” for “compounds (Example compounds 1 to 36, 38 to 41 and 45 to 48) and comparative compounds (bendamustine, busulfan, melphalan, chlorambucil and 4-hydroperoxy cyclophosphamide)”, “(Em” for “(emission”

SUP-T1 = assay: In vitro cytotoxicity, SUP-T1 (T cell Lymphoma); format: cell-based; conditions: Homo sapiens, SUP-T1, 72 h, read-out: Cytotoxicity IC50, SUP-T1
Protocol: as §2
as §1, with “compounds” for “compounds (Example compounds 1 to 36, 38 to 41 and 45 to 48) and comparative compounds (bendamustine, busulfan, melphalan, chlorambucil and 4-hydroperoxy cyclophosphamide)”, “(Em” for “(emission”

[1] = In vitro cytotoxicity, human peripheral blood mononuclear cells; format: cell-based; conditions: CellTiter-Glo 2.0, stimulated with PHA-M and IL-2, read-out: Cytotoxicity IC50, hPBMC
Protocol: as §2
as §1, with “compounds” for “compounds (Example compounds 1 to 36, 38 to 41 and 45 to 48) and comparative compounds (bendamustine, busulfan, melphalan, chlorambucil and 4-hydroperoxy cyclophosphamide)”, “(Em” for “(emission”

[2] = system: DNA prepared from MM.1S cells (nuclear HPRT and mitochondrial DNA); assay: Direct DNA damage, PCR amplification of treated DNA (HPRT and mtDNA primers); format: biochemical, human; conditions: 0.25 μM compound, 30 minutes, 37° C., 1 μg DNA
Protocol: Method: DNA was prepared from MM.1S cells by QIAGEN genomic tip 20/G according to protocol described in Furda et al., Methods Mol Biol, 2012. 1 μg of DNA was treated with 0.25 μM compound for 30 minutes at 37° C. DMSO was used as control treatment. 20 ng of the treated DNA was PCR amplified using Phusion Hot Start II High Fidelity PCR Master Mix (Thermo Scientific) and primers directed to either HPRT or primers directed to mitochondrial DNA (mtDNA) was used, generating 10.4 or 8.9 kb fragments, respectively. The PCR reactions were separated on a 1% agarose gel and visualized by ChemiDoc™ MP Imaging System (BioRad). Example compounds 1, 2 and 38 were investigated, as were compounds 18 and 20, which are metabolites of compound 1. They were compared with bendamustine, melphalan and DMSO control. The results for compounds 1, 2, 18 and 20 with the HPRT primers are shown in FIG. 4(A); the results with the mtDNA primers are shown in FIG. 4(B).

AMO-1 = assay: In vitro cytotoxicity, AMO-1 (Multiple Myeloma); format: cell-based; conditions: Homo sapiens, AMO1, 72 h, read-out: Cytotoxicity IC50, AMO-1
Protocol: as §2
as §1, with “compounds” for “compounds (Example compounds 1 to 36, 38 to 41 and 45 to 48) and comparative compounds (bendamustine, busulfan, melphalan, chlorambucil and 4-hydroperoxy cyclophosphamide)”, “(Em” for “(emission”

EJM = assay: In vitro cytotoxicity, EJM (Multiple Myeloma); format: cell-based; conditions: Homo sapiens, 72 h, read-out: Cytotoxicity IC50, EJM
Protocol: as §2
as §1, with “compounds” for “compounds (Example compounds 1 to 36, 38 to 41 and 45 to 48) and comparative compounds (bendamustine, busulfan, melphalan, chlorambucil and 4-hydroperoxy cyclophosphamide)”, “(Em” for “(emission”

KMS-12-BM = assay: In vitro cytotoxicity, KMS-12-BM (Multiple Myeloma); format: cell-based; conditions: Homo sapiens, 72 h, read-out: Cytotoxicity IC50, KMS-12-BM
Protocol: as §2
as §1, with “compounds” for “compounds (Example compounds 1 to 36, 38 to 41 and 45 to 48) and comparative compounds (bendamustine, busulfan, melphalan, chlorambucil and 4-hydroperoxy cyclophosphamide)”, “(Em” for “(emission”

OPM-2 = assay: In vitro cytotoxicity, OPM-2 (Multiple Myeloma); format: cell-based; conditions: Homo sapiens, OPM-2, 72 h, read-out: Cytotoxicity IC50, OPM-2
Protocol: as §2
as §1, with “compounds” for “compounds (Example compounds 1 to 36, 38 to 41 and 45 to 48) and comparative compounds (bendamustine, busulfan, melphalan, chlorambucil and 4-hydroperoxy cyclophosphamide)”, “(Em” for “(emission”

U266 = assay: In vitro cytotoxicity, U266 (Multiple Myeloma); format: cell-based; conditions: Homo sapiens, U-266, 72 h, read-out: Cytotoxicity IC50, U266
Protocol: as §2
as §1, with “compounds” for “compounds (Example compounds 1 to 36, 38 to 41 and 45 to 48) and comparative compounds (bendamustine, busulfan, melphalan, chlorambucil and 4-hydroperoxy cyclophosphamide)”, “(Em” for “(emission”

[3] = In vitro cytotoxicity, BJ fibroblasts (normal cells); format: cell-based; conditions: human, CellTiter-Glo 2.0
Protocol: as §2
as §1, with “compounds” for “compounds (Example compounds 1 to 36, 38 to 41 and 45 to 48) and comparative compounds (bendamustine, busulfan, melphalan, chlorambucil and 4-hydroperoxy cyclophosphamide)”, “(Em” for “(emission”

[4] = read-out: Cytotoxicity IC50, MM.1S

CCOC(=O)[C@H](Cc1ccc(F)cc1)NC(=O)[C@@H](N)CCc1nc2cc(N(CCCl)CCCl)ccc2n1C [Example 2, Ethyl (2S)-2-[[(2S)-2-amino-4-[5-[bis(2-chloroethyl)amino]-1-methyl-benzimidazol-2-yl]butanoyl]amino]-3-(4-fluorophenyl)propanoate]
IC50 (MM.1S cells; [4]): 7.8 nM | IC50 (MM.1S cells; read-out: MM.1S IC50): 7.8 nM | IC50 (U937): 14.2 nM | IC50 (RPMI-8226): 41.5 nM | IC50 (SK-MM-1): 38.3 nM | IC50 (DOHH-2): 5.3 nM | IC50 (HG-3): 25.7 nM | IC50 (SC-1): 21 nM | IC50 (SU-DHL-8): 20.4 nM | IC50 (Toledo): 6.6 nM | IC50 (DERL-2): 7.8 nM | IC50 (SUP-T1): 17.8 nM | IC50 at 72 h [1]: 7.5 nM | DNA damage on nuclear and mitochondrial DNA (PCR band) [2]: strong DNA damaging effect

CCOC(=O)[C@H](Cc1nc2cc(N(CCCl)CCCl)ccc2n1C)NC(=O)[C@@H](N)CC(C)C [Example 10, Ethyl (2S)-2-[[(2S)-2-amino-4-methyl-pentanoyl]amino]-3-[5-[bis(2-chloroethyl)amino]-1-methyl-benzimidazol-2-yl]propanoate]
IC50 (MM.1S cells; [4]): 19.2 nM | IC50 (MM.1S cells; read-out: MM.1S IC50): 19.2 nM | IC50 (U937): 19.4 nM | IC50 (RPMI-8226): 335 nM | IC50 (SK-MM-1): 62.4 nM | IC50 (DOHH-2): 63.9 nM | IC50 (HG-3): 71.3 nM | IC50 (SC-1): 169 nM | IC50 (SU-DHL-8): 22.1 nM | IC50 (Toledo): 8.5 nM | IC50 (DERL-2): 22.6 nM | IC50 (SUP-T1): 35.6 nM | IC50 at 72 h [1]: 26.4 nM

CCOC(=O)[C@H](CC(C)C)NC(=O)[C@@H](N)CCc1nc2cc(N(CCCl)CCCl)ccc2n1-c1ccccc1 [Example 13, Ethyl (2S)-2-[[(2S)-2-amino-4-[5-[bis(2-chloroethyl)amino]-1-phenyl-benzimidazol-2-yl]butanoyl]amino]-4-methyl-pentanoate]
IC50 (MM.1S cells; [4]): 49 nM | IC50 (MM.1S cells; read-out: MM.1S IC50): 49 nM | IC50 (AMO-1): 965 nM | IC50 (EJM): 356 nM | IC50 (KMS-12-BM): 137 nM | IC50 (OPM-2): 2110 nM | IC50 (RPMI-8226): 1720 nM | IC50 (U266): 400 nM | IC50 (SC-1): 134 nM | IC50 at 72 h [3]: > 2000 nM

Source: patent US20240316059A1, “PEPTIDE DRUG CONJUGATES” (Oncopeptides AB, priority 2021, published 2024)
